Reference: ChEMBL document CHEMBL5257079, “Discovery of FXR/PPARγ dual partial agonist” (Bioorg Med Chem, 2023)
Activity calls are given as the source filed them. The calls are words filed in the database; no cut-off is given here.

Experiments:
[1] = Metabolic stability in mouse liver microsomes assessed as parent compound remaining after 30 mins; format: ADME, Microsome; details: read-out: Stability
[2] = biological target: T1, Peroxisome proliferator-activated receptor gamma (Mus musculus) (UniProt P37238); assay: Inhibition of TNFalpha stimulated PPARgamma phosphorylation at Ser273 residue in mouse 3T3-L1 cells preincubated for 60 mins followed by TNFalpha addition for 90 mins by Western blot analysis; format: cell-based; details: time 150.0 min
T1 sequence (whole entry): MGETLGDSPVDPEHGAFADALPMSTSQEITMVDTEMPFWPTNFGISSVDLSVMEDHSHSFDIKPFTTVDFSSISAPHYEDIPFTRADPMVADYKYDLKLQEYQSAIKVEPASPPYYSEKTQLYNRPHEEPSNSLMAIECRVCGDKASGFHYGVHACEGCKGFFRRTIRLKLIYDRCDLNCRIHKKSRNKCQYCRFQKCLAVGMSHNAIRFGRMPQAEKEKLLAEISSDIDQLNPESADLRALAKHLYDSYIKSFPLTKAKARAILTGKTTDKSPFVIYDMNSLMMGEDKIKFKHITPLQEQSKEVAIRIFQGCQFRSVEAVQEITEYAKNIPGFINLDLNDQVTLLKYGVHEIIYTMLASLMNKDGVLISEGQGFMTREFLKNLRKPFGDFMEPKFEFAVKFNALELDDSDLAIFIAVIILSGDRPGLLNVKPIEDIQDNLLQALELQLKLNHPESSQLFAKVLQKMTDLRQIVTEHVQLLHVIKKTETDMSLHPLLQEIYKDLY

[3] = biological target: T2, Retinoic acid receptor RXR-alpha (Homo sapiens) (UniProt P19793); assay: Activation of RXRalpha (unknown origin) at 10 uM
T2 sequence (whole entry): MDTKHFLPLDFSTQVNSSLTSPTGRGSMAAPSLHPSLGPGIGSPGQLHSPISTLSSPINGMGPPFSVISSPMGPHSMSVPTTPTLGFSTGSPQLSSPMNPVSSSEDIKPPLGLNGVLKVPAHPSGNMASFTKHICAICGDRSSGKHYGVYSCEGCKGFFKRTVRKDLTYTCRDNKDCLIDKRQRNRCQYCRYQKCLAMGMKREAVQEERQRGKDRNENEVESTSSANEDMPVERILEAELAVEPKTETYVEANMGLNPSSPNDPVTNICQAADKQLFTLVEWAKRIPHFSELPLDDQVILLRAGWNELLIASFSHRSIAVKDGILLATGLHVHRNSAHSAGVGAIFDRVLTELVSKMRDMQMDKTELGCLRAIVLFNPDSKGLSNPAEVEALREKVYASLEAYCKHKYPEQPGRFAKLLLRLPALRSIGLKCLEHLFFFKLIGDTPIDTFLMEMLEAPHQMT

[4] = biological target: T3, Bile acid receptor (Homo sapiens) (UniProt Q96RI1); assay: Antagonist activity at FXR-LBD-GST (unknown origin) in presence of GW4064 relative to control; parameters: scale not given: the % may be the effect or the level left
T3 sequence (whole entry): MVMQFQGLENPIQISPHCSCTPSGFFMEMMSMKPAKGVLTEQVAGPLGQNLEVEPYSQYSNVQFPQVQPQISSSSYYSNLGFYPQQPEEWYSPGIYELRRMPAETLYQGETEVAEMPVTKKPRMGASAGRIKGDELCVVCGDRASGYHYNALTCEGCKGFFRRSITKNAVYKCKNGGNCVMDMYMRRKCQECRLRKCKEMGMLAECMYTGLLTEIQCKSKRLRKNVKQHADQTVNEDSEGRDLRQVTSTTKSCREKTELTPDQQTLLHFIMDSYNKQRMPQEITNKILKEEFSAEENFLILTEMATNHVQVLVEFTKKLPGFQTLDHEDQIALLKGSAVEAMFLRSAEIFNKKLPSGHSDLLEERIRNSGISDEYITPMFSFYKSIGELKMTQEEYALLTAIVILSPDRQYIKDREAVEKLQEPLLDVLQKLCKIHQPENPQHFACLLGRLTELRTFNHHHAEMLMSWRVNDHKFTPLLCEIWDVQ

[5] = biological target: T4, Peroxisome proliferator-activated receptor delta (Homo sapiens) (UniProt Q03181); assay: Activation of PPARdelta (unknown origin) at 10 uM
T4 sequence (whole entry): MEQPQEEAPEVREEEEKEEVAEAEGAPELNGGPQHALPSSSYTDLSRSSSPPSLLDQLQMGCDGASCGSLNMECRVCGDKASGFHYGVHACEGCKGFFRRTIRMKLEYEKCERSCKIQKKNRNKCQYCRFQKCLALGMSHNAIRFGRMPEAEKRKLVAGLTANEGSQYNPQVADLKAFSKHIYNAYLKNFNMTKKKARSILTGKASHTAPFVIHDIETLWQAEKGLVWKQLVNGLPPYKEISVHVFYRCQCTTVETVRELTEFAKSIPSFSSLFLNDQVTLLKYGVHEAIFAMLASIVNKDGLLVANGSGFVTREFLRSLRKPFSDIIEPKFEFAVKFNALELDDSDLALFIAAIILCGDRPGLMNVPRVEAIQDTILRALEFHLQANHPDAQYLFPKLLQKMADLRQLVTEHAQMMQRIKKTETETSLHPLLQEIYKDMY

[6] = biological target: T3, Bile acid receptor (Homo sapiens); assay: Partial agonist activity at human FXR expressed in Huh-7 cells in presence of CDCA by luciferase reporter gene assay relative to GW4064; format: cell-based
[7] = biological target: T3, Bile acid receptor (Homo sapiens); assay: Partial agonist activity at FXR in human Huh-7 cells assessed as reduction in CDCA-induced BSEP gene expression at 10 uM by RT-PCR analysis; format: cell-based; details: filed as partial agonist
Bile acid receptor = biological target: T5, Bile acid receptor (Homo sapiens, UniProt Q96RI1); assay: Partial agonist activity at FXR-LBD-GST (unknown origin) by TR-FRET assay; details: read-out: EC50
T5 sequence (Q96RI1 whole entry): T3 sequence (whole entry)

[8] = biological target: T3, Bile acid receptor (Homo sapiens); assay: Partial agonist activity at FXR in human Huh-7 cells assessed as reduction in CDCA-induced OSTalpha gene expression at 10 uM by RT-PCR analysis; format: cell-based; details: filed as partial agonist
[9] = biological target: T6, Vitamin D3 receptor (Homo sapiens) (UniProt P11473); assay: Activation of VDR (unknown origin) at 10 uM
T6 sequence (whole entry): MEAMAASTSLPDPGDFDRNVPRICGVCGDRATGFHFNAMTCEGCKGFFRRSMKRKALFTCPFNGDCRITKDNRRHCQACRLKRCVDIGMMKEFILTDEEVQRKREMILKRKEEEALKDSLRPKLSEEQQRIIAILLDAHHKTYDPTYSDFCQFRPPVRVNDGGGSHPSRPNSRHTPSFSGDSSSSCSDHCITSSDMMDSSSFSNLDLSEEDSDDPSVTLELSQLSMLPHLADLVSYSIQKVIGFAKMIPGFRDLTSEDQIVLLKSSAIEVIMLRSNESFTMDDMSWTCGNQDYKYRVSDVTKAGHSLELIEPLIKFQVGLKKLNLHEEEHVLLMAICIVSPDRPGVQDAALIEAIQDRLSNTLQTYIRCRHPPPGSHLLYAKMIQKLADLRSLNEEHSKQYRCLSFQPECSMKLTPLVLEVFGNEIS

For `CC(C)(C)c1ccc(-n2cnc3c(NC(=O)Cc4ccc(C(=O)O)cc4)cccc32)cc1`, the remaining at 0.5 h [1] was 69.5%, the inhibition [2] was “Dose-Dependent Effect” and the Activity [3] was “inactive”. For the same compound, the Activity [4] was 30%, the Activity [5] was “inactive” and the Activity [6] was 35.6%. For the same compound, the Activity [7] was “Active”, the EC50 (Bile acid receptor) was 0.25 µM and the Activity [8] was “Active”. For the same compound, the Activity [9] was “inactive”.
